Data set [1] deals with Plasmodium falciparum. The data set is described as follows: NOVARTIS: Inhibition of Plasmodium falciparum 3D7 (drug-susceptible) proliferation in erythrocyte-based infection assay. Particulars: Plasmodium falciparum, 3D7. Type of data set: functional, organism-based.
The test system of data set [2] is Plasmodium falciparum. The data set is described as follows: NOVARTIS: Inhibition of Plasmodium falciparum W2 (drug-resistant) proliferation in erythrocyte-based infection assay. It is filed as functional, organism-based. Conditions: Plasmodium falciparum, W2; read-out: EC50.
The nature of data set [3]: NOVARTIS: Cytotoxicity against human hepatocellular carcinoma cell line (Huh7). Type of data set: toxicity, cell-based, Huh-7. Conditions: Huh7 cells (hepatocellular carcinoma cell line).

The structures appear in SMILES notation. Some results are limits rather than exact numbers.

For `COC(=O)c1ccc(C2C3=C(CC(c4ccc(OC)cc4)CC3=O)Nc3ccccc3N2C(=O)c2ccccc2)cc1` (stereo unspecified), the EC50 was 427 nM in the data set with Plasmodium falciparum [1] and 368 nM with Plasmodium falciparum [2]. The CC50 in data set [3] was over 100 µM.

With `CC(=O)Nc1ccc(-c2nc3c4ccccc4c4ccc(I)cc4c3[nH]2)cc1`, the values for the EC50 in the data set on Plasmodium falciparum [1] and in the data set with Plasmodium falciparum [2] were 296 nM and 362 nM, respectively. The half-maximal cytotoxic concentration (CC50) in data set [3] is over 100 µM.

For the compound `CCOc1ccccc1-n1c(N)c(C(=O)Nc2ccc(C)cc2)sc1=S`, the EC50 is 1320 nM with Plasmodium falciparum [1] and 361 nM in the data set on Plasmodium falciparum [2]. The CC50 in data set [3] is over 100 µM.

`COc1cc(Cl)c(C)cc1NC(=O)C1c2ccccc2C(=O)N(CC(C)C)C1c1cccs1` (stereo unspecified): the EC50 in the data set with Plasmodium falciparum [1] worked out at 578 nM; in the data set with Plasmodium falciparum [2] it was 373 nM. Moreover, the cytotoxic concentration (CC50) in data set [3] is over 100 µM.

Turning to `CC[n+]1c(C=C2C=C(C)OC(C)=C2)sc2ccccc21`, the EC50 in the data set on Plasmodium falciparum [1] is 147 nM; in the data set on Plasmodium falciparum [2] it was 119 nM. This compound also returned a CC50 in data set [3] of over 32 µM.

On to `CCC(C)CNC(=O)c1ccc(OC2CCN(CC3CCCCC3)CC2)c(Cl)c1` (stereo unspecified), for which the EC50 amounted to 78.2 nM with Plasmodium falciparum [1] and 48.4 nM with Plasmodium falciparum [2]. Also, the CC50 in data set [3] is over 13.2 µM.

For the compound `O=C1C(NC2CCCC2)=C(N2CCOCC2)C(=O)c2ccccc21`, the concentration for a half-maximal effect (EC50) in the data set on Plasmodium falciparum [1] stood at 119 nM; in the data set on Plasmodium falciparum [2], 139 nM. The compound further showed a CC50 in data set [3] of 37.9 µM.

In the case of `OCCCCCCCCCCC[n+]1ccccc1`, the EC50 with Plasmodium falciparum [1] is 133 nM; with Plasmodium falciparum [2], 365 nM. Also, the CC50 in data set [3] is over 100 µM.

In the case of `C[N+]1(CC(=O)NNc2c3ccccc3nc3ccccc23)CCOCC1`, the EC50 was found to be 637 nM with Plasmodium falciparum [1] and 364 nM in the data set on Plasmodium falciparum [2]. Also, the CC50 in data set [3] is over 100 µM.

On to `CCC(C)OC(=O)C1=C(C)NC2=C(C(=O)CC(c3ccc(Cl)cc3)C2)C1c1cccc(O)c1` (stereo unspecified), for which the EC50 with Plasmodium falciparum [1] was 1020 nM; with Plasmodium falciparum [2], 147 nM. Also, half-maximal cytotoxicity in data set [3] (CC50) was put at 39.6 µM.

As for `Fc1ccc(-c2c[n+](Cc3ccc(Cl)cc3)c3n2CCC3)cc1`, the EC50 was 1140 nM in the data set on Plasmodium falciparum [1] and 370 nM in the data set on Plasmodium falciparum [2]. Further, the CC50 in data set [3] was over 100 µM.

As to `CCCCC(=O)Oc1ccccc1-c1nc2ccccn2c1NC(C)(C)CC(C)(C)C`, the EC50 in the data set on Plasmodium falciparum [1] is 296 nM; with Plasmodium falciparum [2], under 7.1 nM. Besides, it took 1.92 µM to reach half-maximal cytotoxicity in data set [3] (CC50).

With `Cn1c(=O)n(Cc2ccccc2)c(=O)c2c1nc(SCC(=O)Nc1ccccc1)n2Cc1ccccc1`, the EC50 in the data set on Plasmodium falciparum [1] was 1850 nM; in the data set with Plasmodium falciparum [2] it was 362 nM. In data set [3], this compound had a cytotoxic concentration (CC50) of over 100 µM.

In the case of `CCOC(=O)c1nnn(-c2nonc2N)c1-c1ccc(C)cc1`, the EC50 was 304 nM with Plasmodium falciparum [1] and 367 nM in the data set on Plasmodium falciparum [2]. In addition, the CC50 in data set [3] is over 100 µM.

As for `Cc1cc(C)c2c(c1)-c1c(ssc1=S)C(C)(C)N2C(=O)c1ccccc1`, the values for the EC50 with Plasmodium falciparum [1] and with Plasmodium falciparum [2] were 523 nM and 370 nM, respectively. For the same compound, the CC50 in data set [3] is over 100 µM.

Regarding `COc1cccc(C2Sc3ccccc3NC3=C2C(=O)c2ccccc23)c1` (stereo unspecified), the EC50 in the data set on Plasmodium falciparum [1] is 577 nM; in the data set with Plasmodium falciparum [2], 362 nM. In addition, the 50% cytotoxic concentration (CC50) in data set [3] was over 100 µM.

Consider `CCCCNc1c2c(c(C#N)c3nc4ccccc4n13)CCC2`, for which the EC50 stood at 113 nM in the data set with Plasmodium falciparum [1] and 367 nM in the data set on Plasmodium falciparum [2]. In data set [3], this compound returned a CC50 of over 100 µM.

For the compound `Cc1c2ccccc2cc(Cc2ccccc2)[n+]1C`, the EC50 with Plasmodium falciparum [1] was 488 nM; in the data set with Plasmodium falciparum [2], 369 nM. This compound displayed a CC50 in data set [3] of over 100 µM.

For the compound `Cc1cc(C(=O)Nc2cnn(Cc3ccc(Cl)cc3Cl)c2)no1`, the EC50 was found to be 620 nM in the data set on Plasmodium falciparum [1] and 371 nM in the data set on Plasmodium falciparum [2]. In data set [3], this compound displayed a CC50 of over 100 µM.

For `CCCCN(C(=O)CCC(=O)Nc1cc(C)on1)C(C(=O)NC1CCCC1)c1ccc(C)o1` (stereo unspecified), the EC50 with Plasmodium falciparum [1] was 22.2 nM; in the data set with Plasmodium falciparum [2] it was 36.9 nM. The compound also came in with a CC50 in data set [3] of over 10 µM.

For the compound `C(=C1\C(c2ccccc2)=Nc2ccccc21)/c1c(-c2ccccc2)[nH]c2ccccc12`, the EC50 in the data set on Plasmodium falciparum [1] was found to be 210 nM; in the data set on Plasmodium falciparum [2] it was 36.4 nM. For the same compound, in data set [3], the CC50 was over 10 µM.

In the case of `CN1CCc2c(sc3nc(SCc4ccc(Cl)cc4)n(-c4cccc(Cl)c4)c(=O)c23)C1`, the EC50 is 1050 nM in the data set with Plasmodium falciparum [1] and 363 nM with Plasmodium falciparum [2]. Further, the CC50 in data set [3] is over 100 µM.

Usually EC50 stands for the concentration at which the effect is half-maximal. Usually CC50 stands for the concentration that lowers cell viability or growth by half. The low end stands for greater toxicity to the cells, the high end for lower toxicity to the cells.

These data come from ChEMBL document CHEMBL1156829 (Proc Natl Acad Sci U S A, 2008).
